# Reference: US20250230193A1, “CYCLIC COMPOUND HAVING SELECTIVE KRAS INHIBITORY EFFECT ON HRAS AND NRAS” (CHUGAI SEIYAKU KABUSHIKI KAISHA, priority 2022, published 2025)
# Tests used:
# [1] = biological target: GDP-bound HRAS wild-type protein (Homo sapiens, UniProt P01112); assay: Binding to HRAS by surface plasmon resonance (SPR), Single Cycle Kinetics; conditions: KD ratio HRAS/KRAS, class symbols
# [2] = biological target: GDP-bound NRAS wild-type protein (Homo sapiens, UniProt P01111); assay: Binding to NRAS by surface plasmon resonance (SPR), Single Cycle Kinetics; conditions: KD ratio NRAS/KRAS, class symbols
# Sequence of GDP-bound NRAS wild-type protein (P01111 whole entry): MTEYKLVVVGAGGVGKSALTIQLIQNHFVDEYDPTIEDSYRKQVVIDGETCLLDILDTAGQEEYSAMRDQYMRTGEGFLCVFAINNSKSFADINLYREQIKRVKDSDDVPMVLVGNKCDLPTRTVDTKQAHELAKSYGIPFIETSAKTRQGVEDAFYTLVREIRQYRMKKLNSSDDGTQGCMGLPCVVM
# Sequence of GDP-bound HRAS wild-type protein (P01112 whole entry): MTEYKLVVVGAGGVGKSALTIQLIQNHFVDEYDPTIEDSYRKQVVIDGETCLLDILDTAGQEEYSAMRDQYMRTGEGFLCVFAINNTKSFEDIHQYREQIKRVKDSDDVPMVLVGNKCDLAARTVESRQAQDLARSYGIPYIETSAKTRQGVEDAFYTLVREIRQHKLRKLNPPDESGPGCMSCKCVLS
Compound,HRAS/KRAS (ratio of KD value with respect to GDP-bound HRAS wild-type protein to KD value with respect to KRAS) [1],NRAS/KRAS (ratio of KD value with respect to GDP-bound NRAS wild-type protein to KD value with respect to KRAS) [2]
CCC(CC)[C@H]1C(=O)N(C)[C@H](C(=O)N(C)C)CC(=O)N(C)[C@@H](COC)C(=O)N[C@@H]([C@@H](C)CC)C(=O)N(C)CC(=O)N(C)[C@H]2C/C=C\CCN(C2=O)[C@@H](Cc2ccc(C(F)(F)F)cc2)C(=O)N(C)CC(=O)N[C@@H](CCc2cc(F)c(C(F)(F)F)c(F)c2)C(=O)N2CCCC[C@H]2C(=O)NC2(CC(C)(C)C2)C(=O)N1C [PP2916],A (a compound having 10 or more and less than 20 is denoted as A),A (a compound having 10 or more and less than 20 is denoted as A)
CCC(CC)[C@H]1C(=O)N(C)[C@H](C(=O)N(C)C)CC(=O)N(C)[C@@H](COC)C(=O)N[C@@H]([C@@H](C)CC)C(=O)N(C)CC(=O)N(C)[C@H]2C/C=C\CCN(C2=O)[C@@H](Cc2ccc(C(F)(F)F)cc2)C(=O)N(C)CC(=O)N[C@@H](CCc2cc(F)c(C(F)(F)F)c(F)c2)C(=O)N2CCOC[C@H]2C(=O)NC2(CC(C)(C)C2)C(=O)N1C [PP2917],A (a compound having 10 or more and less than 20 is denoted as A),AA (a compound having 20 or more is denoted as AA)
CCC(CC)[C@H]1C(=O)N(C)[C@H](C(=O)N(C)C)CC(=O)N(C)[C@@H](COC)C(=O)N[C@@H]([C@@H](C)CC)C(=O)N(C)CC(=O)N(C)[C@H]2C/C=C\CCN(C2=O)[C@@H](Cc2ccc(C(F)(F)F)cc2)C(=O)N(C)CC(=O)N[C@@H](CCc2cc(F)c(C(F)(F)F)c(F)c2)C(=O)N2CC[C@H]2C(=O)NC2(CC(C)(C)C2)C(=O)N1C [PP2918],A (a compound having 10 or more and less than 20 is denoted as A),AA (a compound having 20 or more is denoted as AA)
CCC[C@H]1C(=O)N[C@@H]([C@@H](C)CC)C(=O)N(C)CC(=O)N(C)[C@H]2C/C=C\CCN(C2=O)[C@@H](Cc2ccc(C(F)(F)F)cc2)C(=O)N(C)CC(=O)N[C@@H](CCc2ccc(Cl)c(Cl)c2)C(=O)N2CCOC[C@H]2C(=O)NC2(CC(C)(C)C2)C(=O)N(C)[C@@H](C(CC)CC)C(=O)N(C)[C@H](C(=O)N(C)C)CC(=O)N1C [PP2920],A (a compound having 10 or more and less than 20 is denoted as A),AA (a compound having 20 or more is denoted as AA)
CCC[C@H]1C(=O)N[C@@H]([C@@H](C)CC)C(=O)N(C)CC(=O)N(C)[C@H]2C/C=C\CCN(C2=O)[C@@H](Cc2ccc(C(F)(F)F)cc2)C(=O)N(C)CC(=O)N[C@@H](CCc2ccc(Cl)c(Cl)c2)C(=O)N2CC[C@H]2C(=O)NC2(CC(C)(C)C2)C(=O)N(C)[C@@H](C(CC)CC)C(=O)N(C)[C@H](C(=O)N(C)C)CC(=O)N1C [PP2921],A (a compound having 10 or more and less than 20 is denoted as A),AA (a compound having 20 or more is denoted as AA)
CCC(CC)[C@H]1C(=O)N(C)[C@H](C(=O)N(C)C)CC(=O)N(C)[C@@H](COC)C(=O)N[C@@H]([C@@H](C)CC)C(=O)N(C)CC(=O)N(C)[C@H]2C/C=C\CCN(C2=O)[C@@H](Cc2ccc(C)cc2)C(=O)N(C)CC(=O)N[C@@H](CCc2cc(F)c(C(F)(F)F)c(F)c2)C(=O)N2CCCC[C@H]2C(=O)NC2(CC(C)(C)C2)C(=O)N1C [PP2922],A (a compound having 10 or more and less than 20 is denoted as A),AA (a compound having 20 or more is denoted as AA)
CCC[C@H]1C(=O)N[C@@H]([C@@H](C)CC)C(=O)N(C)CC(=O)N(C)[C@H]2C/C=C\CCN(C2=O)[C@@H](Cc2ccc(C(F)(F)F)cc2)C(=O)N(C)CC(=O)N[C@@H](CCc2ccc(C(F)(F)F)c(Cl)c2)C(=O)N2CCCC[C@H]2C(=O)NC2(CC(C)(C)C2)C(=O)N(C)[C@@H](C(CC)CC)C(=O)N(C)[C@H](C(=O)N(C)C)CC(=O)N1C [PP2928],A (a compound having 10 or more and less than 20 is denoted as A),AA (a compound having 20 or more is denoted as AA)
CCC[C@H]1C(=O)N[C@@H]([C@@H](C)CC)C(=O)N(C)CC(=O)N(C)[C@H]2C/C=C\CCN(C2=O)[C@@H](Cc2ccc(C(F)(F)F)cc2)C(=O)N(C)CC(=O)N[C@@H](CCc2ccc(C(F)(F)F)c(Cl)c2)C(=O)N2CCOC[C@H]2C(=O)NC2(CC(C)(C)C2)C(=O)N(C)[C@@H](C(CC)CC)C(=O)N(C)[C@H](C(=O)N(C)C)CC(=O)N1C [PP2929],A (a compound having 10 or more and less than 20 is denoted as A),AA (a compound having 20 or more is denoted as AA)
CCC(CC)[C@H]1C(=O)N(C)[C@H](C(=O)N(C)C)CC(=O)N(C)[C@@H](COC)C(=O)N[C@@H]([C@@H](C)CC)C(=O)N(C)CC(=O)N(C)[C@H]2C/C=C\CCN(C2=O)[C@@H](Cc2ccc(C)cc2)C(=O)N(C)CC(=O)N[C@@H](CCc2ccc(C(F)(F)F)c(Cl)c2)C(=O)N2CCCC[C@H]2C(=O)NC2(CC(C)(C)C2)C(=O)N1C [PP2931],A (a compound having 10 or more and less than 20 is denoted as A),A (a compound having 10 or more and less than 20 is denoted as A)
CCC[C@H]1C(=O)N[C@@H]([C@@H](C)CC)C(=O)N(C)CC(=O)N(C)[C@H]2C/C=C\CCN(C2=O)[C@@H](Cc2ccc(C(F)(F)F)cc2)C(=O)N(C)CC(=O)N[C@@H](CCc2ccc(C(F)(F)F)c(OC)c2)C(=O)N2CCCC[C@H]2C(=O)NC2(CC(C)(C)C2)C(=O)N(C)[C@@H](C(CC)CC)C(=O)N(C)[C@H](C(=O)N(C)C)CC(=O)N1C [PP2934],A (a compound having 10 or more and less than 20 is denoted as A),AA (a compound having 20 or more is denoted as AA)
CCC[C@H]1C(=O)N[C@@H]([C@@H](C)CC)C(=O)N(C)CC(=O)N(C)[C@H]2C/C=C\CCN(C2=O)[C@@H](Cc2ccc(C(F)(F)F)cc2)C(=O)N(C)CC(=O)N[C@@H](CCc2ccc(C(F)(F)F)c(OC)c2)C(=O)N2CCOC[C@H]2C(=O)NC2(CC(C)(C)C2)C(=O)N(C)[C@@H](C(CC)CC)C(=O)N(C)[C@H](C(=O)N(C)C)CC(=O)N1C [PP2935],A (a compound having 10 or more and less than 20 is denoted as A),A (a compound having 10 or more and less than 20 is denoted as A)
CCC[C@H]1C(=O)N[C@@H]([C@@H](C)CC)C(=O)N(C)CC(=O)N(C)[C@H]2C/C=C\CCN(C2=O)[C@@H](Cc2ccc(C(F)(F)F)cc2)C(=O)N(C)CC(=O)N[C@@H](CCc2ccc(C(F)(F)F)c(OC)c2)C(=O)N2CC[C@H]2C(=O)NC2(CC(C)(C)C2)C(=O)N(C)[C@@H](C(CC)CC)C(=O)N(C)[C@H](C(=O)N(C)C)CC(=O)N1C [PP2936],A (a compound having 10 or more and less than 20 is denoted as A),AA (a compound having 20 or more is denoted as AA)
CCC(CC)[C@H]1C(=O)N(C)[C@H](C(=O)N(C)C)CC(=O)N(C)[C@@H](COC)C(=O)N[C@@H]([C@@H](C)CC)C(=O)N(C)CC(=O)N(C)[C@H]2C/C=C\CCN(C2=O)[C@@H](Cc2ccc(C)cc2)C(=O)N(C)CC(=O)N[C@@H](CCc2ccc(C(F)(F)F)c(OC)c2)C(=O)N2CCCC[C@H]2C(=O)NC2(CC(C)(C)C2)C(=O)N1C [PP2937],A (a compound having 10 or more and less than 20 is denoted as A),A (a compound having 10 or more and less than 20 is denoted as A)
CCC(CC)[C@H]1C(=O)N(C)[C@H](C(=O)N(C)C)CC(=O)N(C)[C@@H](COC)C(=O)N[C@@H]([C@@H](C)CC)C(=O)N(C)CC(=O)N(C)[C@H]2C/C=C\CCN(C2=O)[C@@H](Cc2ccc(C)cc2)C(=O)N(C)CC(=O)N[C@@H](CCc2ccc(C(F)(F)F)c(OC)c2)C(=O)N2CCOC[C@H]2C(=O)NC2(CC(C)(C)C2)C(=O)N1C [PP2938],A (a compound having 10 or more and less than 20 is denoted as A),AA (a compound having 20 or more is denoted as AA)
CCC(CC)[C@H]1C(=O)N(C)[C@H](C(=O)N(C)C)CC(=O)N(C)[C@@H](COC)C(=O)N[C@@H]([C@@H](C)CC)C(=O)N(C)CC(=O)N(C)[C@H]2C/C=C\CCN(C2=O)[C@@H](Cc2ccc(C(F)(F)F)cc2)C(=O)N(C)CC(=O)N[C@@H](CCc2ccc(Cl)c(Cl)c2)C(=O)N2CCOC[C@H]2C(=O)NC2(CC(C)(C)C2)C(=O)N1C [PP2941],A (a compound having 10 or more and less than 20 is denoted as A),AA (a compound having 20 or more is denoted as AA)
